The values that follow come from patent US20260263426A1, “DIAMIDINE ANALOGS FOR ANTI-INFLAMMATORY USE” (MONTDOREX INC., priority 2023, published 2026).

In test [1] the test system is non-alcoholic fatty liver disease. Conditions: mice; Zhao E et al (2017) Hepatology 66:922-935; cited from earlier work.
The test system of the next test is endo-exonuclease. Kind of test: inhibition of endo-exonuclease activity, in-vitro. It counts as biochemical. Conditions: read-out: EE IC50. The text has this: The inhibition of endo-exonuclease has been measured using pentamidine and a pentamidine analog where the center site of pentamidine (the carbon backbone) has been altered. Endo-exonuclease inhibition has been tested in-vitro.

For a further test, the system named is HCT-116. The test can be described thus: HCT-116 IC50 (Table 1). It counts as cell-based. Conditions: Homo sapiens.

The IC50 is the concentration needed to halve the response being measured. Consider `Cl.Cl.N=C(N)c1ccc(OCCCCCOc2ccc(C(=N)N)cc2)cc1` [Pentamidine HCl], for which, in test [1], the body weight result was “reduces”, the food intake entry is “reduces”, the hepatic triglycerides result was “reduces” and the “serum ALT” value is “reduces”. For the same molecule, the IC50 in the test with endo-exonuclease was 53.1 µM. The IC50 in the test on HCT-116 turned out to be 107 µM.
On to `N=C(N)c1ccc(OCCCCCCCCCCOc2ccc(C(=N)N)cc2)cc1` [Decamidine-isethionate], for which the results for the IC50 with endo-exonuclease and in the test with HCT-116 were 23.2 µM and 6.2 µM, respectively.
